This note sets out measurements from patent US20190105367A1, “ANTIMICROBIAL 4-OXOQUINOLIZINES” (Emergent Product Development Gaithersburg Inc., priority 2011, published 2019).

Structures are written as SMILES. Values after ≈ are worked out from the molar mass of the structure shown. Bounds are passed on as bounds.

Assay [1] concerns strains of A. baumannii and one strain of Acinetobacter sp. Description: MIC with sub-inhibitory concentrations (0.25x MIC) of polymyxin B, panel of Acinetobacter strains (Example 4). It is filed as cell-based. To be noted: 1st experiment; […] polymyxin B; ATCC 19606, A329, A390 and A473 not taken.
Assay [2] relates to A. baumannii ATCC 19606. Description: MIC without and with sub-inhibitory polymyxin B (Example 4). To be noted: 1st experiment. Type of assay: cell-based, Acinetobacter baumannii.
The test system of assay [3] is A. baumannii ATCC 19606. Description: Preliminary MBC without and with sub-inhibitory polymyxin B (Example 4). Type of assay: cell-based, Acinetobacter baumannii. Conditions: Acinetobacter baumannii, ATCC19606, read-out: MBC +0.06 μg/ml PB, A. baumannii ATCC 19606, +0.06 μg/ml polymyxin B, 1st experiment.
Assay [4] concerns A. baumannii J2. Description: MIC without and with sub-inhibitory polymyxin B (Example 4). It is filed as cell-based, Acinetobacter baumannii. To be noted: 1st experiment.
In assay [5] the test system is A. baumannii J2. The experiment in a line: Preliminary MBC without and with sub-inhibitory polymyxin B (Example 4). Conditions: Acinetobacter baumannii, J2, read-out: MBC +[…] PB, A. baumannii J2; +[…] polymyxin B; preliminary MBC; 1st experiment. It is filed as cell-based, Acinetobacter baumannii.
In assay [6] the test system is Acinetobacter sp. (H064200250). Description: MIC without and with sub-inhibitory polymyxin B (Example 4). Type of assay: cell-based. To be noted: 1st experiment.
In assay [7] the test system is Acinetobacter sp. (H064200250). The experiment in a line: Preliminary MBC without and with sub-inhibitory polymyxin B (Example 4). It is filed as cell-based. To be noted: Acinetobacter, read-out: MBC +[…] PB, Acinetobacter spp. H064200250; +[…] polymyxin B; preliminary MBC; 1st experiment. How it is done: (§1) The plates were incubated for 18-20 hours at 37° C. The MBC was read as the lowest concentration at which colony growth was ca. 90% less than the positive control (i.e. usually where single colonies or no colonies were observed).

For assay [8], the system named is A. baumannii A387. Description: MIC without and with sub-inhibitory polymyxin B (Example 4). Type of assay: cell-based, Acinetobacter baumannii. Conditions: 1st experiment.
Assay [9] concerns A. baumannii A387. The experiment in a line: Preliminary MBC without and with sub-inhibitory polymyxin B (Example 4). It is filed as cell-based, Acinetobacter baumannii. Conditions: Acinetobacter baumannii, A387, read-out: MBC +0.06 μg/ml PB, A. baumannii A387, +0.06 μg/ml polymyxin B, 1st experiment.
For assay [10], the system named is A. baumannii NCTC 13301. Described as above. Type of assay: cell-based, Acinetobacter baumannii. Conditions: Acinetobacter baumannii, NCTC13301, read-out: MBC +[…] PB. The procedure: as §1
The subject of assay [11] is A. baumannii A401. The experiment in a line: MIC without and with sub-inhibitory polymyxin B (Example 4). It is filed as cell-based, Acinetobacter baumannii. Conditions: 1st experiment.
For assay [12], the system named is A. baumannii A401. The experiment in a line: Preliminary MBC without and with sub-inhibitory polymyxin B (Example 4). It is filed as cell-based, Acinetobacter baumannii. To be noted: Acinetobacter baumannii, A401, read-out: MBC +0.06 μg/ml PB, A baumannii A 401, +0.06 μg/ml polymyxin B, 1st experiment.
Assay [13] concerns A. baumannii A472. The experiment in a line: MIC without and with sub-inhibitory polymyxin B (Example 4). It is filed as cell-based, Acinetobacter baumannii. To be noted: 1st experiment.
Assay [14] has as its system A. baumannii A472. Description: Preliminary MBC without and with sub-inhibitory polymyxin B (Example 4). Type of assay: cell-based, Acinetobacter baumannii. To be noted: Acinetobacter baumannii, A472, read-out: MBC +[…] PB, A. baumannii A472; +[…] polymyxin B; preliminary MBC; 1st experiment.
Assay [15] has as its system A. baumannii A489. Description: MIC without and with sub-inhibitory polymyxin B (Example 4). Type of assay: cell-based, Acinetobacter baumannii. To be noted: 1st experiment.
Assay [16] concerns A. baumannii A489. Description: Preliminary MBC without and with sub-inhibitory polymyxin B (Example 4). Type of assay: cell-based, Acinetobacter baumannii. Conditions: Acinetobacter baumannii, A489, read-out: MBC +[…] PB, A. baumannii A489; +[…] polymyxin B; preliminary MBC; 1st experiment.
The test system of assay [17] is A. baumannii NCTC 13301. Description: MIC without and with sub-inhibitory polymyxin B (Example 4). It is filed as cell-based, Acinetobacter baumannii.
The test system of assay [18] is A. baumannii A14. Described as above. It is filed as cell-based, Acinetobacter baumannii. Conditions: 1st experiment.
In assay [19] the test system is A. baumannii A14. The experiment in a line: Preliminary MBC without and with sub-inhibitory polymyxin B (Example 4). It is filed as cell-based, Acinetobacter baumannii. To be noted: A. baumannii A14, preliminary MBC, 1st experiment.
Assay [20] deals with GN52 Acinetobacter baumannii levofloxacin resistant clinical isolate. Description: Chequerboard synergy with polymyxin B, FICI (Example 6). Type of assay: cell-based. An excerpt:
(§2) A chequerboard technique was used to identify possible synergistic or antagonistic interactions between the 4-oxoquinolizines compounds, levofloxacin and polymyxin B. Levofloxacin was included as a control. […] Final dilutions were made in Mueller-Hinton broth, the specific test medium used for MIC determinations according to CLSI guidelines (CLSI. Methods for Dilution Antimicrobial Susceptibility Tests for Bacteria That Grow Aerobically; Approved Standard-Eighth Edition (2009). CLSI Document M07-A8. CLSI, Wayne, Pa. 19087-1898, USA.). The test medium used was a cation-adjusted Mueller-Hinton Broth II (Becton Dickinson UK Ltd., Oxford Science Park, Oxford, UK, OX4 4DQ).
(§3) The compounds 2, 33 and 35, as well as levofloxacin were tested in combination with polymyxin B on the following isolates: GN31 Acinetobacter baumannii—antibiotic susceptible clinical isolate, GN52 Acinetobacter baumannii—levofloxacin resistant clinical isolate, GN56 Acinetobacter baumannii—levofloxacin resistant clinical isolate, GN48 Klebsiella pneumoniae—NCTC 13443—NDM-1-metallo-β-lactamase and GN10 Pseudomonas aeruginosa—ATCC 27853—antibiotic susceptible reference isolate. All isolates are from the collection maintained at Quotient Bioresearch Ltd., Cambridge, UK.
(§4) The MIC values for the compounds and polymyxin B and levofloxacin were determined by broth microdilution following CLSI guidelines, and the MICs of agents in combination were determined as described by Pillai et. al (Pillai S K, Moellering R C Jr, Eliopoulis G M; Antimicrobial Combinations in Antibiotics in Laboratory Medicine 5th Edition (V. Lorian Ed) (2005) p 365-440). Initial MIC results were used to determine the microtiter plate patterns for the chequerboards. A suitable doubling dilution concentration range was selected such that the combination antibiotic range was at least two concentrations above and four concentrations below the MIC for each isolate. A fixed range of 0.008 to 8 mg/L was tested for polymyxin B except in the case of A. baumannii GN31 where a range of 0.004 to 4 mg/L was tested when in combination with the compounds 2, 33 and 35 as well as levofloxacin.
(§5) From the raw data, fractional inhibitory concentration indices (FICI) were determined for the compounds of the invention and levofloxacin together with polymyxin B for each isolate as follows:
(§6) FICX=concentration of the combination antibiotic in a particular row MIC of the combination drug alone
(§7) FICY=MIC of polymyxin B in combination[…]MIC of the polymyxin B alone
(§8) Additionally isobolograms were created to represent the same data visually. Here, the MIC of polymyxin B was plotted against every concentration of the combination antibiotic up to the MIC.

In assay [21] the test system is GN56 Acinetobacter baumannii levofloxacin resistant clinical isolate. The description is as above. Type of assay: cell-based.
Description: as §2, §3, §4, §5, §6, §7, §8

Setting [22] is: in combination with polymyxin B.
Where [23] appears, read: polymyxin B with the named antibiotic.

On to `Cc1c(-c2ccc(N)c(F)c2)c(F)cn2c(=O)c(C(=O)O)cc(C3CC3)c12` [Compound 17, 8-(3-fluoro-4-amino-phenyl)-1-cyclopropyl-7-fluoro-9-methyl-4-oxo-quinolizine-3-carboxylic acid], for which the “MIC range with PB (0.25x MIC) Oct. 1, 2008 n = 8” value in assay [1] was ≤0.03 to 1 µg/mL. In addition, the “MIC without PB/MIC + PB” value is reported as ≥16 in the assay with A. baumannii ATCC 19606 [2] (A. baumannii ATCC 19606, ratio, PB 0.06 μg/ml); 64 with A. baumannii J2 [4] (A. baumannii J2, ratio, PB […]); 128 in assay [6] (Acinetobacter spp. H064200250, ratio, PB […]); ≥32 in the assay with A. baumannii A387 [8] (A. baumannii A387, ratio, PB 0.06 μg/ml); 8 in the assay on A. baumannii A401 [11] (A baumannii A 401, ratio, PB 0.06 μg/ml); ≥128 in the assay with A. baumannii A472 [13] (A. baumannii A472, ratio, PB […]). For the same compound, the “MIC without PB/MIC + PB” value with A. baumannii A489 [15] (A. baumannii A489, ratio, PB […]) is listed as ≥256; with A. baumannii NCTC 13301 [17] (A. baumannii NCTC 13301, ratio, PB […], 1st experiment), ≥512; in the assay with A. baumannii A14 [18] (ratio, PB 0.06 μg/ml), 16. In addition, the MIC in the assay with A. baumannii ATCC 19606 [2] (Acinetobacter baumannii, ATCC19606, read-out: MIC +0.06 μg/ml PB, A. baumannii ATCC 19606, +0.06 μg/ml polymyxin B) was ≤ 0.03 µg/mL; in the assay on A. baumannii J2 [4] (Acinetobacter baumannii, J2, read-out: MIC +[…] PB, A. baumannii J2, +[…] polymyxin B), 0.06 µg/mL (≈ 0.162 µM); in assay [6] (Acinetobacter, read-out: MIC +[…] PB, Acinetobacter spp. H064200250, +[…] polymyxin B), 0.06 µg/mL (≈ 0.162 µM); with A. baumannii A387 [8] (Acinetobacter baumannii, A387, read-out: MIC +0.06 μg/ml PB, A. baumannii A387, +0.06 μg/ml polymyxin B), ≤ 0.03 µg/mL; in the assay with A. baumannii A401 [11] (Acinetobacter baumannii, A401, read-out: MIC +0.06 μg/ml PB, A baumannii A 401, +0.06 μg/ml polymyxin B) it was 0.5 µg/mL; in the assay on A. baumannii A472 [13] (Acinetobacter baumannii, A472, read-out: MIC +[…] PB, A. baumannii A472, +[…] polymyxin B), ≤ 0.03 µg/mL. Further, the MIC with A. baumannii A489 [15] (Acinetobacter baumannii, A489, read-out: MIC +[…] PB, A. baumannii A489, +[…] polymyxin B) is ≤ 0.03 µg/mL; in the assay on A. baumannii NCTC 13301 [17] (Acinetobacter baumannii, NCTC13301, read-out: MIC +[…] PB), ≤ 0.03 µg/mL; in the assay with A. baumannii A14 [18] (Acinetobacter baumannii, 24 h, without polymyxin B, read-out: MIC without PB), 16 µg/mL (≈ 43.2 µM). Besides, the MBC with A. baumannii ATCC 19606 [3] was ≤ 0.03 µg/mL; with A. baumannii J2 [5], 0.06 µg/mL (≈ 0.162 µM); in assay [7], 0.06 µg/mL (≈ 0.162 µM); with A. baumannii A387 [9], ≤ 0.03 µg/mL; in the assay on A. baumannii NCTC 13301 [10] it was ≤ 0.03 µg/mL; in the assay with A. baumannii A401 [12], 0.5 µg/mL. In addition, the MBC in the assay on A. baumannii A472 [14] was 0.125 µg/mL (≈ 0.338 µM); with A. baumannii A489 [16], ≤ 0.03 µg/mL; with A. baumannii A14 [19] (Acinetobacter baumannii, without polymyxin B, read-out: MBC without PB), 16 µg/mL (≈ 43.2 µM). Besides, the “MIC +0.06 μg/ml PB” value with A. baumannii A14 [18] (+0.06 μg/ml polymyxin B) was 1 µg/mL. Moreover, the “MBC +0.06 μg/ml PB” value in the assay with A. baumannii A14 [19] (+0.06 μg/ml polymyxin B) is 1 µg/mL.

For `Cc1c(-c2ccc(N)nc2)ccn2c(=O)c(C(=O)O)cc(C3CC3)c12` [Compound 33, 8-(6-amino-3-pyridyl)-1-cyclopropyl-9-methyl-4-oxo-quinolizine-3-carboxylic acid], the “Combination drug MIC alone” value amounted to 4 µg/mL in assay [20] and 32 µg/mL in [21]. Besides, the figures for the FICx in [20] and in assay [21] were 0.25 and 0.06, respectively. For the same compound, the FICy in [20] and in assay [21] was 0.24 in each case. Further, the FICI is on record as 0.49 in [20] (combination with polymyxin B) and 0.30 in [21] (combination with polymyxin B). Moreover, the Synergy entry in [20] (combination with polymyxin B) and in [21] (combination with polymyxin B) was “Synergy (Synergy (FICI <0.5))” each time. Moreover, the “Combination drug concentration in combination” value was 1 mg/L in assay [20] (setting [22]) and 2 mg/L in [21] (setting [22]). The “Polymyxin B MIC in combination” value in [20] (setting [23]) and in assay [21] (setting [23]) was 0.12 µg/mL throughout.
